From patent publication US11759434B2, “Methods and compositions for treating melanoma and non-melanoma skin cancers” (Sytheon Limited, priority 2022, dated 2023)
Values belong to the molecule of their own block, whether it stands above or below them.

Experiments:
[1] = test system: AMPK; test: AMPK activation study (phosphorylation of AMPK at Thr-172) in epidermal keratinocytes; assay type: cell-based, human; conditions: for AMPK-P/Protein Ratio: two hours
Procedure: (§1) AMPK activation is a known and efficacious treatment for melanoma and non-melanoma skin cancer (See. e.g., Chen. L. et. al., “AMPK Activation by GSK621 Inhibits Human Melanoma Cells In Vitro and In Vivo”, Biochemical and Biophysical Research Communications 480 (2016), 515-521). To ascertain the ability and efficacy of the compounds of Structure 1 to activate AMPK, a cell assay study was undertaken. In the study, human epidermal keratinocytes were grown using EpiLife Media (60 μM calcium) supplemented with 0.2% v/v bovine pituitary extract, 1 μg/ml recombinant human insulin-like growth factor-I, 0.18 μg/ml hydrocortisone, 5 μg/ml bovine transferrin, 0.2 ng/ml human epidermal growth factor. The cells were grown at 37±2° C. and 5±1% CO2. The keratinocytes were seeded into 96-well plates and cultured overnight to allow the cells to adhere to the well plates. Prior to experimental use, the growth media was replaced with basal media (unsupplemented EpiLife Media) for five hours prior to starting any treatments.
The ability of the test material to activate AMPK was determined by measuring the phosphorylation of AMPK. The epidermal keratinocytes were treated with the test material prepared in basal media for two hours. At the end of the two-hour incubation the culture media was removed and the cells were fixed in 4% formaldehyde for 20 minutes at room temperature. After the fixation, the cells were washed three times with wash solution (1 minute per wash) and any endogenous peroxidase activity was quenched by adding 100 ul of a 0.3% H2O2 solution to the wells and incubating the plate for another 20 minutes. After washing as described above, non-specific antibody binding was blocked by adding 200 ul of blocking buffer to each well and incubating the plate for 1 hour at room temperature. […] After this incubation the well plate was read using a fluorometer at 530ex/590em to determine AMPK phosphorylation and at 360ex/485em to determine total cellular protein.

[2] = test system: Senescent Associated β-Galactosidase (SA-B-Gal); test: Senescent Associated β-Galactosidase (SA-B-Gal) activity assay; assay type: cell-based, human; conditions: 3 days
Procedure: as §1
(§2) The foregoing effect of AZ as an AMPK activator and, in turn, anti-melanoma treatment is especially surprising in light of the pro-viability effect of AZ in normal cells, even those in senescence. Specifically, following on the foregoing experimental methodology, additional studies were conducted on the human keratinocytes cells to assess AZ's impact on cell viability as evidenced by an MTT assay as well as an assessment of its impact on SA-B-Gal activity. In these studies, the human epidermal keratinocytes were treated in basal media for two hours with the test material and then treated with either 50 uM or 100 uM H2O2 in basal media for an additional two hours: the latter treatment to induce senescence. Following the H2O2 treatment, the cells were placed in with fully supplemented EpiLife media for either 16 hours after which changes in cell viability was evaluated via an MTT assay or for 3 days after which changes in the cellular senescence marker beta galactosidase (SA-B-GAL) was evaluated.
SA-B-GAL Calculation: To determine the changes in SA-B-GAL expression a direct measure of SA-B-GAL activity was used. At the end of the three-day incubation the media was removed, 100 ul of ice-cold cell lysis buffer was added and the cells were lysed for 5 minutes at 4° C. At the end of this lysis procedure a portion of the lysate was used for a protein assay while 50 ul of the cell lysate was transferred to a new well plate and combined with an equal volume of SA-B-GAL reaction buffer containing a fluorescent substrate. This well plate was then incubated for 3 hours at 37° C., after which a 50 ul sample of the reaction was combined with 200 ul of stop solution in a new well plate and the plate was read using a fluorometer (360ex/485em), The fluorescence intensity was then normalized to cellular protein and this ratio was used as an index of SA-B-GAL activity.

[3] = test system: patient derived, NRAS-mutated melanoma cells; test: Cell viability (Alamar blue) in melanoma cells; assay type: cell-based, human; conditions: 3 days treatment, 3 biological repeats
Procedure: (§3) In support of the present teachings several experiments were conducted to assess the cytotoxicity of compound 1 (Acetyl Zingerone CAT), available as Synoxyl® AZ from Sytheon Ltd.) and Compound 4, its mono-methoxy analog (3-(4-Methoxy-benzyl)-pentane-2,4-dione (MBPD)), towards normal melanocytes (Normal, C57BL/6 mouse melanocytes, darkly pigmented), and patient derived, NRAS-mutated melanoma cells. On Day 1, the melanoma cells and normal melanocytes were seeded into the black walled 96 well plates (cat. no.—165305, thermo), ˜1000 cells per well and allowed to stand for one day. […] Thereafter, the dye was replaced with 100 ul PBS (Cat. no. 14190-144, Gibco) and cell viability as evidenced by fluorescence was recorded (by Biotek synergy/H1 microplate reader) at 560/590 nm. Cell survival was calculated by subtracting the background (media only) and then normalizing those results with the results obtained from the cells that were not treated with AZ or MBPD. […]

[4] = test system: human epidermal keratinocytes; test: MTT assay (cell viability) after H2O2-induced senescence; assay type: cell-based
Procedure: as §1, §2
MTT Calculation: the mean MIT absorbance value for untreated cells not exposed to H2O2 was calculated and used to represent 100% cell viability. The individual MIT values from the cells undergoing the various treatments was then divided by the mean value for the untreated cells not exposed to H2O2 and expressed as a percent to determine the change in cell viability caused by each treatment.

[5] = test system: Trametinib resistant human, NRAS mutated, WM1366 melanoma cells; test: MBPD/Trametinib synergy, cell viability (Alamar blue); assay type: cell-based
Procedure: Specifically, Trametinib resistant human, NRAS mutated, WM1366 melanoma cells were created in-house by sequentially treating the cells with various concentrations (2 nM-10 nM) of Trametinib for several weeks. Those cells which survived 2 nM Trametinib after two weeks, were then incubated with 4 nM Trametinib and those that survived 4 nM Trametinib for two weeks were isolated and then incubated with 10 nM for several weeks. This led to development of resistance in the WM1366 cells.
In this study, the Trametinib resistant cells were seeded into black walled 96 well plates (cat. no.—165305, thermo), ˜1000 cells per well employing the same media as noted in Example 1. On Day 2, the cells were treated with 125 or 62.5 μg/ml MBPD and incubated for 48 hours. After 48 hours, fresh cell-culture medium was added with MBPD and Trametinib at concentrations of 30, 15, 7.5, 3.75, 1.875, and 0.9375 nM and the cells allowed to sit for 72 hours. On Day 7, Alamar blue (cat. no. A50101, invitrogen) was added to each well and the cultures incubated for 1 hr in a CO2 incubator. Thereafter, the dye was replaced with 100 ul PBS (Cat no. 14190-144, Gibco) and cell viability as evidenced by fluorescence was recorded (by Biotek synergy/H1 microplate reader) at 560/590 nm.
Molar (M) IC50 values were calculated using formula weight of each of the compounds individually.

[6] = test system: Normal, C57BL/6 mouse melanocytes, darkly pigmented; test: Cell viability (Alamar blue) in normal melanocytes; assay type: cell-based; conditions: Melanocyte, 72 h, 3 days treatment, 4 biological repeats
Procedure: as §3

SA-B-Gal Activity/Protein ([2]; 12.5 μg/ml, 50 μM H2O2): 3.45 ± 0.29 | SA-B-Gal Activity/Protein ([2]; 12.5 μg/ml, 100 μM H2O2): 3.29 ± 0.37 | SA-B-Gal Activity/Protein ([2]; 25 μg/ml, 50 μM H2O2): 3.30 ± 0.23 | SA-B-Gal Activity/Protein ([2]; 25 μg/ml, 100 μM H2O2): 3.95 ± 0.36 | SA-B-Gal Activity/Protein ([2]; 50 μg/ml, 50 μM H2O2): 0.91 ± 0.06 | SA-B-Gal Activity/Protein ([2]; 50 μg/ml, 100 μM H2O2): 0.90 ± 0.15 | IC50 [3]: 1300 µM
SMILES: COc1cc(CC(C(C)=O)C(C)=O)ccc1O [AZ, Acetyl Zingerone]
AMPK-P/Protein Ratio ([1]; 25 μg/ml): 4.16 ± 0.65 | increase of AMPK activity ([1]; 50 μg/ml): 88.3% | AMPK-P/Protein Ratio ([1]; 50 μg/ml): 6.48 ± 1.10 | Viability (% of non-H2O2 exposed cells) ([4]; 12.5 μg/ml, 50 μM H2O2): 79.9 ± 11.5% | Viability (% of non-H2O2 exposed cells) ([4]; 12.5 μg/ml, 100 μM H2O2): 79.1 ± 1.4% | Viability (% of non-H2O2 exposed cells) ([4]; 25 μg/ml, 50 μM H2O2): 76.1 ± 6.9% | Viability (% of non-H2O2 exposed cells) ([4]; 25 μg/ml, 100 μM H2O2): 77.4 ± 9.6% | Viability (% of non-H2O2 exposed cells) ([4]; 50 μg/ml, 50 μM H2O2): 100.7 ± 8.3 % | Viability (% of non-H2O2 exposed cells) ([4]; 50 μg/ml, 100 μM H2O2): 100.2 ± 6.5%

reduction of the Trametinib IC50 by MBPD ([5]; 125 or 62.5 μg/ml MBPD, 48 h pre-incubation then MBPD plus Trametinib 72 h, 2 biological repeats): ~5 fold | IC50 ([3]; Homo sapiens, 72 h): 400 µM
SMILES: COc1ccc(CC(C(C)=O)C(C)=O)cc1 [MBPD, 3-(4-Methoxy-benzyl)-pentane-2,4-dione]
IC50 [6]: 14400 µM

IC50 ([5]; Homo sapiens, in-house generated, Trametinib resistant, NRAS-mutated melanoma cells): 0.01 to 0.02 µM
SMILES: CC(=O)Nc1cccc(-n2c(=O)n(C3CC3)c(=O)c3c(Nc4ccc(I)cc4F)n(C)c(=O)c(C)c32)c1 [Trametinib, trametinib, reference compound]
